According to US11358957B2, “Microbiocidal oxadiazole derivatives” (SYNGENTA PARTICIPATIONS AG, priority 2017, dated 2022):
Each block holds one molecule with its values, some of them ahead of it.

What was measured:
[1] = test system: Puccinia recondita f. Sp. Tritici; assay: Fungicidal activity against Puccinia recondita f. sp. tritici / wheat / leaf disc curative (brown rust); assay type: in vivo; conditions: foliar, 24 h, 200 ppm in the applied formulation, wheat leaf segments cv. Kanzler, curative (applied 1 day after inoculation), compared to untreated, read-out: disease control
Method in brief: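 Wheat leaf segments (cv. Kanzler) on agar were inoculated with brown rust spores, kept dark at 19 °C and 75% RH, then sprayed 1 day later with compound (DMSO stock diluted in 0.025% Tween20). Under 12 h light/12 h dark at 19 °C, percent disease control versus untreated was scored 6–8 days after application; 200 ppm applied.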

[2] = test system: Puccinia recondita f. Sp. Tritici; assay: Fungicidal activity against Puccinia recondita f. sp. tritici / wheat / leaf disc preventative (brown rust); assay type: in vivo; conditions: foliar, 200 ppm in the applied formulation, wheat leaf segments cv. Kanzler, preventative (inoculated 1 day after application), compared to untreated, read-out: disease control
Method in brief: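 Segments of wheat cv. Kanzler on water agar were sprayed with compound and inoculated with spores 1 day later. They were kept at 19 °C, 75% rh and 12 h light/12 h dark. Percent disease control versus untreated was scored 7–9 days after application; compounds were tested at 200 ppm.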

[3] = test system: Glomerella lagenarium (Colletotrichum lagenarium); assay: Fungicidal activity against Glomerella lagenarium (Colletotrichum lagenarium) liquid culture / cucumber / preventative (anthracnose); assay type: cell-based; conditions: Colletotrichum orbiculare; 20 ppm in the applied formulation; liquid culture (PDB), inhibition of growth measured photometrically 3 to 4 days after application; compared to untreated; read-out: disease control
Method in brief: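 Conidia from cryogenic storage mixed into potato dextrose broth and added to compound in DMSO in microtiter plates. Incubated at 24° C.; growth inhibition read photometrically 3 to 4 days after application. Disease control expressed relative to untreated control, with compound at 20 ppm in the applied formulation.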

[4] = test system: Phakopsora pachyrhizi; assay: Fungicidal activity against Phakopsora pachyrhizi / soybean / leaf disc preventative (Asian soybean rust); assay type: in vivo; conditions: foliar, 200 ppm in the applied formulation, soybean leaf disks, compared to untreated, read-out: disease control
Description: Leaf disks or leaf segments of various plant species are cut from plants grown in a greenhouse. The cut leaf disks or segments are placed in multiwell plates (24-well format) onto water agar. The leaf disks are sprayed with a test solution before (preventative) or after (curative) inoculation. Compounds to be tested are prepared as DMSO solutions (max. 10 mg/mL) which are diluted to the appropriate concentration with 0.025% Tween20 just before spraying. The inoculated leaf disks or segments are incubated under defined conditions (temperature, relative humidity, light, etc.) according to the respective test system. A single evaluation of disease level is carried out 3 to 14 days after inoculation, depending on the pathosystem. Percent disease control relative to the untreated check leaf disks or segments is then calculated. Soybean leaf disks are placed on water agar in multiwell plates (24-well format) and sprayed with the formulated test compound diluted in water. One day after application leaf discs are inoculated by spraying a spore suspension on the lower leaf surface. After an incubation period in a climate cabinet of 24-36 hours in darkness at 20° C. and 75% rh leaf disc are kept at 20° C. with 12 h light/day and 75% rh. The activity of a compound is assessed as percent disease control compared to untreated when an appropriate level of disease damage appears in untreated check leaf disks (12 to 14 days after application). The following compounds at 200 ppm in the applied formulation give at least 80% disease control in this test when compared to untreated control leaf disks under the same conditions, which show extensive disease development.

- melting point: 134 to 141 °C
SMILES: CONC(=O)c1ccn(Cc2ccc(-c3noc(C(F)(F)F)n3)s2)n1 [Compound 1.56, N-methoxy-1-[[5-[5-(trifluoromethyl)-1,2,4-oxadiazol-3-yl]-2-thienyl]methyl]pyrazole-3-carboxamide]
- pest or weed control at 200 ppm [1]: ≥ 80%
- pest or weed control at 200 ppm [2]: ≥ 80%
- inhibition of growth at 20 ppm [3]: ≥ 80%
- pest or weed control at 200 ppm [4]: ≥ 80%

- melting point: 135.3 to 137.9 °C
SMILES: COCCNC(=O)c1cnn(Cc2ccc(-c3noc(C(F)(F)F)n3)s2)c1 [Compound 1.39, N-(2-methoxyethyl)-1-[[5-[5-(trifluoromethyl)-1,2,4-oxadiazol-3-yl]-2-thienyl]methyl]pyrazole-4-carboxamide]
- pest or weed control at 200 ppm [1]: ≥ 80%
- pest or weed control at 200 ppm [2]: ≥ 80%
- inhibition of growth at 20 ppm [3]: ≥ 80%
- pest or weed control at 200 ppm [4]: ≥ 80%

The remaining lines, values behind:

SMILES: CONC(=O)c1ccnn1Cc1ccc(-c2noc(C(F)(F)F)n2)s1 [Compound 1.60, N-methoxy-2-[[5-[5-(trifluoromethyl)-1,2,4-oxadiazol-3-yl]-2-thienyl]methyl]pyrazole-3-carboxamide]
- pest or weed control at 200 ppm [1]: ≥ 80%
- pest or weed control at 200 ppm [2]: ≥ 80%
- inhibition of growth at 20 ppm [3]: ≥ 80%
- melting point: 105 to 115 °C
- pest or weed control at 200 ppm [4]: ≥ 80%

SMILES: CN(C)c1ncn(Cc2ccc(-c3noc(C(F)(F)F)n3)s2)n1 [Compound 1.4, N,N-dimethyl-1-[[5-[5-(trifluoromethyl)-1,2,4-oxadiazol-3-yl]-2-thienyl]methyl]-1,2,4-triazol-3-amine]
- pest or weed control at 200 ppm [1]: ≥ 80%
- pest or weed control at 200 ppm [2]: ≥ 80%
- inhibition of growth at 20 ppm [3]: ≥ 80%
- melting point: 113 to 116 °C
- pest or weed control at 200 ppm [4]: ≥ 80%

SMILES: CONC(=O)c1ncn(Cc2ccc(-c3noc(C(F)(F)F)n3)s2)n1 [Compound 1.59, N-methoxy-1-[[5-[5-(trifluoromethyl)-1,2,4-oxadiazol-3-yl]-2-thienyl]methyl]-1,2,4-triazole-3-carboxamide]
- pest or weed control at 200 ppm [1]: ≥ 80%
- pest or weed control at 200 ppm [2]: ≥ 80%
- inhibition of growth at 20 ppm [3]: ≥ 80%
- melting point: 168 to 178 °C
- pest or weed control at 200 ppm [4]: ≥ 80%

SMILES: CNC(=O)c1ccnn1Cc1ccc(-c2noc(C(F)(F)F)n2)s1 [Compound 1.52, N-methyl-2-[[5-[5-(trifluoromethyl)-1,2,4-oxadiazol-3-yl]-2-thienyl]methyl]pyrazole-3-carboxamide]
- pest or weed control at 200 ppm [1]: ≥ 80%
- pest or weed control at 200 ppm [2]: ≥ 80%
- inhibition of growth at 20 ppm [3]: ≥ 80%
- melting point: 148 to 151 °C
- pest or weed control at 200 ppm [4]: ≥ 80%
